# US20190038624A1 (priority 2017, published 2019)
# Read-outs that look alike come from different tables or passages of the source.
# Tested on: patients with probable MSA
# Assay type: in vivo, human
# Settings: average of five patients, oral 200 mg daily
# Experimental: Five patients fulfilled the consensus criteria for “probable MSA” and received oral Nilotinib 200 mg daily for 24 weeks. Disease progression was monitored every 4 weeks by measuring the patient's motor and non-motor symptoms with the Unified Multiple System Atrophy Rating Scale (UMSARS). Mini Mental State Examination (MMSE) was used to screen for cognitive impairment. […] However, these AEs resolved with continued administration of the drug. […] Furthermore, there was a significant decline of 6.8 and 2.2 points in the UMSARS and UMSARS-II, respectively, compared to baseline (see FIG. 2). MMSE results were normal throughout treatment.
smiles,measurement,setting,value
Cc1cn(-c2cc(NC(=O)c3ccc(C)c(Nc4nccc(-c5cccnc5)n4)c3)cc(C(F)(F)F)c2)cn1 [Nilotinib],"UMSARS, Average",Week 4,52.6 points
same,"UMSARS-II, Average",Week 4,22.2 points
same,"UMSARS, Average",Week 8,52.4 points
same,"UMSARS-II, Average",Week 8,22.2 points
same,"UMSARS, Average",Week 12,50.8 points
same,"UMSARS-II, Average",Week 12,22 points
same,"UMSARS, Average",Week 16,49.4 points
same,"UMSARS-II, Average",Week 16,21.6 points
same,"UMSARS, Average",Week 20,47.8 points
same,"UMSARS-II, Average",Week 20,21.2 points
same,"UMSARS, Average",Week 24,46.6 points
same,"UMSARS-II, Average",Week 24,20.6 points
